In PMC9181188 (International Journal of Molecular Sciences, 2022):
In brackets after ≈: the same amount, converted by molar mass. Read-outs that look alike come from different tables or passages of the source.

Columns and labels:
[1] = tested on: SW480 cells; experiment: MTT assay, SW480; format: cell-based, human; details: for IC50: Homo sapiens, SW480, 72 h, human primary colon cancer, 72 h, MTT, mean ± SD; for SI SW480: SI = IC50 for normal cell line (HaCaT)/IC50 cancer cell line
[2] = tested on: SW620 cells; experiment: MTT assay, SW620; format: cell-based, human; details: for IC50: Homo sapiens, SW-620, 72 h, human metastatic colon cancer, 72 h, MTT, mean ± SD; for SI SW620: SI = IC50 for normal cell line (HaCaT)/IC50 cancer cell line
[3] = tested on: PC3 cells; experiment: MTT assay, PC3; format: cell-based, human; details: for IC50: human metastatic prostate cancer, 72 h, MTT, mean ± SD; for SI PC3: SI = IC50 for normal cell line (HaCaT)/IC50 cancer cell line
[4] = tested on: HaCaT cells; experiment: MTT assay, HaCaT normal cells; format: cell-based; details: human immortal keratinocyte cell line, 72 h, mean ± SD
[5] = tested on: S. aureus NCTC 4163; experiment: MIC, twofold microdilution, standard strain; format: cell-based; details: Staphylococcus aureus, NCTC4163; 18 h of treatment; read-out: MIC S. aureus NCTC 4163
[6] = tested on: S. aureus ATCC 25923; experiment: MIC, twofold microdilution, standard strain; format: cell-based; details: Staphylococcus aureus, ATCC25923; 18 h of treatment; read-out: MIC S. aureus ATCC 25923
[7] = tested on: S. aureus ATCC 6538; experiment: MIC, twofold microdilution, standard strain; format: cell-based; details: Staphylococcus aureus, ATCC6538; 18 h of treatment; read-out: MIC S. aureus ATCC 6538
[8] = tested on: S. aureus ATCC 29213; experiment: MIC, twofold microdilution, standard strain; format: cell-based; details: Staphylococcus aureus, ATCC29213; 18 h of treatment; read-out: MIC S. aureus ATCC 29213
[9] = tested on: S. epidermidis ATCC 12228; experiment: MIC, twofold microdilution, standard strain; format: cell-based; details: Staphylococcus epidermidis, ATCC12228; 18 h of treatment; read-out: MIC S. epidermidis ATCC 12228
[10] = tested on: S. epidermidis ATCC 35984; experiment: MIC, twofold microdilution, standard strain; format: cell-based; details: Staphylococcus epidermidis, ATCC35984; 18 h of treatment; read-out: MIC S. epidermidis ATCC 35984
[11] = tested on: E. coli ATCC 25922; experiment: MIC, twofold microdilution, standard strain; format: cell-based, Escherichia coli; details: for MIC: Escherichia coli, read-out: MIC E. coli ATCC 25922
[12] = tested on: P. aeruginosa ATCC 27853; experiment: MIC, twofold microdilution, standard strain; format: cell-based; details: Pseudomonas aeruginosa, ATCC27853; 18 h of treatment; read-out: MIC P. aeruginosa ATCC 27853
[13] = tested on: S. epidermidis KR 4047 825/19; experiment: MIC, clinical S. epidermidis strain; format: cell-based; details: Staphylococcus epidermidis, KR4047825/19, quinolone-resistant, 18 h of treatment
[14] = tested on: S. epidermidis KR 4243 829/19; experiment: MIC, clinical S. epidermidis strain; format: cell-based; details: Staphylococcus epidermidis, KR4243829/19, quinolone-susceptible, 18 h of treatment
[15] = tested on: S. epidermidis KR 4313 834/19; experiment: MIC, clinical S. epidermidis strain; format: cell-based; details: Staphylococcus epidermidis, KR4313834/19, quinolone-susceptible, 18 h of treatment
[16] = tested on: S. epidermidis KR 4358/2 840/19; experiment: MIC, clinical S. epidermidis strain; format: cell-based; details: Staphylococcus epidermidis, KR4358/2840/19; clinical S. epidermidis, quinolone-susceptible, 18 h of treatment; read-out: MIC KR 4358/2 840/19
[17] = tested on: S. epidermidis T 5253 845/19; experiment: MIC, clinical S. epidermidis strain; format: cell-based; details: Staphylococcus epidermidis, T5253845/19, quinolone-resistant, 18 h of treatment
[18] = tested on: S. epidermidis T 5399 848/19; experiment: MIC, clinical S. epidermidis strain; format: cell-based; details: Staphylococcus epidermidis, T5399848/19, quinolone-susceptible, 18 h of treatment
[19] = tested on: S. epidermidis T 5501 851/19; experiment: MIC, clinical S. epidermidis strain; format: cell-based; details: Staphylococcus epidermidis, T5501851/19, read-out: MIC T 5501 851/19, quinolone-susceptible, 18 h of treatment
[20] = tested on: M. tuberculosis H37Rv; experiment: MABA (microplate Alamar blue assay) MIC; format: cell-based; details: Mycobacterium tuberculosis, 336 h, read-out: MIC M. tuberculosis H37Rv
[21] = tested on: M. tuberculosis Spec. 192 (Sensitive to Tuberculostatics); experiment: MABA (microplate Alamar blue assay) MIC; format: cell-based; details: Mycobacterium tuberculosis, 336 h, read-out: MIC M. tuberculosis Spec. 192 (Sensitive to Tuberculostatics)
[22] = target: T1, S. aureus topoisomerase IV (Staphylococcus aureus, UniProt P0C1S7+P0C1U9); experiment: S. aureus topoisomerase IV decatenation assay; format: biochemical
T1 construct: purchased Inspiralis
Method: The assay was performed using S. aureus topoisomerase IV […] kit (Inspiralis). Kinetoplast DNA (kDNA) was the substrate for topoisomerase IV.

[23] = tested on: standard staphylococci (S. aureus, S. epidermidis); experiment: MIC, standard Gram-positive strains as a group; format: cell-based; details: Staphylococcus aureus; range over standard Gram-positive strains; read-out: MIC against standard staphylococci
[24] = tested on: quinolone-susceptible clinical coagulase-negative staphylococci; experiment: MIC, quinolone-susceptible clinical isolates as a group; format: cell-based; details: Staphylococcus epidermidis, five quinolone-susceptible isolates, read-out: MIC against quinolone-susceptible clinical isolates
[25] = tested on: M. tuberculosis strains; experiment: MABA MIC, mycobacterial strains as a group; format: cell-based; details: Mycobacterium tuberculosis, read-out: MIC antimycobacterial (strain not specified)
[26] = target: T2, S. aureus DNA gyrase (Staphylococcus aureus, UniProt P0A0K8+P20831); experiment: biochemical
Method: (§1) The assay was performed using S. aureus DNA Gyrase Supercoiling kit (Inspiralis). […] Samples were vortexed, centrifuged, and 20 µL of the aqueous phase of each sample was loaded onto a 1% agarose gel and left for 30 min prior to electrophoresis to allow diffusion of salt. Electrophoresis was conducted in TAE buffer for 3 h at 50 V. Gels were stained with ethidium bromide and visualized under UV light in a transilluminator (ChemiDoc MP, Bio Rad, Warsaw, Poland).

[27] = tested on: SW480, SW620, and PC3 cancer cell lines; experiment: MTT assay, cancer cell lines as a group; format: cell-based, human; details: Homo sapiens, 72 h, all three cancer cell lines (SW480, SW620, PC3), read-out: IC50 against all tested cancer cell lines
[28] = tested on: quinolone-resistant isolates (KR 4047 and T5253); experiment: MIC, quinolone-resistant clinical isolates as a group; format: cell-based; details: Staphylococcus epidermidis, read-out: MIC against quinolone-resistant clinical isolates
[29] = target: T2, S. aureus DNA gyrase; details: read-out: IC50 for Gyrase; inhibition of DNA supercoiling, 30 min at 37 °C
Method: as §1

T2 sequence (P20831 whole entry): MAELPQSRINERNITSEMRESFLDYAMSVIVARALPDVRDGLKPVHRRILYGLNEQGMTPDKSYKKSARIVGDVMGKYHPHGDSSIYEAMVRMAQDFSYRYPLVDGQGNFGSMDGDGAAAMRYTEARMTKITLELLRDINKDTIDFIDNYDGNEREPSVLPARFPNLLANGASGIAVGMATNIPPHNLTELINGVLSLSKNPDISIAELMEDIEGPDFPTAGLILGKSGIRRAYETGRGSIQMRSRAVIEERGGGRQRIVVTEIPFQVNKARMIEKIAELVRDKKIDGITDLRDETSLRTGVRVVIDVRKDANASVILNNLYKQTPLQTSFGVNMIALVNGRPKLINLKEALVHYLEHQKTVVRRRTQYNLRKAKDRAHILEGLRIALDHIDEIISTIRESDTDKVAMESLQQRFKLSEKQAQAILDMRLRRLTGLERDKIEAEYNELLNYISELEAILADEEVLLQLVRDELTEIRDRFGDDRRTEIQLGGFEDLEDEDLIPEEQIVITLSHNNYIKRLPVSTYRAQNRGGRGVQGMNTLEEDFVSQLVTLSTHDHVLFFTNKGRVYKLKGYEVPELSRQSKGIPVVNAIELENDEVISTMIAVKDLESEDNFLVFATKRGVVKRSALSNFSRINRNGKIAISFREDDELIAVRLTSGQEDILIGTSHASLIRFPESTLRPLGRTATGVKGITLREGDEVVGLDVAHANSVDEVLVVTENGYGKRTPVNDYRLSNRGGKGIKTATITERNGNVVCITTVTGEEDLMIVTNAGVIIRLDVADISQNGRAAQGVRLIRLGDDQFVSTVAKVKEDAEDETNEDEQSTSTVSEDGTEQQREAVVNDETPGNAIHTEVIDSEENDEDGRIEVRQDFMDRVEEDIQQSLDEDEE
T2 sequence (P0A0K8 whole entry): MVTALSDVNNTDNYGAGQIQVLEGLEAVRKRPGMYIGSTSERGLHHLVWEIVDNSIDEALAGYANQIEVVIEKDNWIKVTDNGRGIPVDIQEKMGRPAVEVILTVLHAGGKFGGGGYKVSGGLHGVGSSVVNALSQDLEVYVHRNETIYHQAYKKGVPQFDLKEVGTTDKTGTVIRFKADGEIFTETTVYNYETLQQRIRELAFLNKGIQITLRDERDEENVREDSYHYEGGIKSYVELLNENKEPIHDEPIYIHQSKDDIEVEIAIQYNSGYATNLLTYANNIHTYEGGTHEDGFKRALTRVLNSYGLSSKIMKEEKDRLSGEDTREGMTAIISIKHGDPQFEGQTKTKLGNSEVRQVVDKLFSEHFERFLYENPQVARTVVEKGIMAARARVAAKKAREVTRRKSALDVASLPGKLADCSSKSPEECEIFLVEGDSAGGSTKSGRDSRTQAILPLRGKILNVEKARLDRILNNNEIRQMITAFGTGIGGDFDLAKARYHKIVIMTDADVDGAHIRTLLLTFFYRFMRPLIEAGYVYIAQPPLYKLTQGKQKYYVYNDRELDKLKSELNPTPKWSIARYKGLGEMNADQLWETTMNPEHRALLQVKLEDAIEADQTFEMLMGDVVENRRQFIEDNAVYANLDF
T1 sequence (P0C1U9 whole entry): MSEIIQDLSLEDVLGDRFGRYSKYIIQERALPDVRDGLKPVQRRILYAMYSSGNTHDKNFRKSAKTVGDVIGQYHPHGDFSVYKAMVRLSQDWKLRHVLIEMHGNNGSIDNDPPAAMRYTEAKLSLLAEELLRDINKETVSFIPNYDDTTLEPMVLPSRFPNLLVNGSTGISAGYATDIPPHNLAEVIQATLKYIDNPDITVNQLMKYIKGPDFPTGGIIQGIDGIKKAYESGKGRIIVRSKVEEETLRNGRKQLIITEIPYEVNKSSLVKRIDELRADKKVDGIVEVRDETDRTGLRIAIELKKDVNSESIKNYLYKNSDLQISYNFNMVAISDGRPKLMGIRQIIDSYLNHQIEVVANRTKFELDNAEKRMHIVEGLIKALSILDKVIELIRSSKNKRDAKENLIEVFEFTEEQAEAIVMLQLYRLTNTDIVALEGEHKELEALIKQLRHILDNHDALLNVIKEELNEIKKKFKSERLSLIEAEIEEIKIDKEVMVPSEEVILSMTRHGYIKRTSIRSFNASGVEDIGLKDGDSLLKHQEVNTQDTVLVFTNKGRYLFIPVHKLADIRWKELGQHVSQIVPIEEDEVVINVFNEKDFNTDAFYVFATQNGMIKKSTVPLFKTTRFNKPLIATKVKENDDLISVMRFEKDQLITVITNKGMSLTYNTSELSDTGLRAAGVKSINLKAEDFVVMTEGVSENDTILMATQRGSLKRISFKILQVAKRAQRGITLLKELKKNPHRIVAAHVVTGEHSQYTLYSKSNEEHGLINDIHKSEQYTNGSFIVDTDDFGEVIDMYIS
T1 sequence (P0C1S7 whole entry): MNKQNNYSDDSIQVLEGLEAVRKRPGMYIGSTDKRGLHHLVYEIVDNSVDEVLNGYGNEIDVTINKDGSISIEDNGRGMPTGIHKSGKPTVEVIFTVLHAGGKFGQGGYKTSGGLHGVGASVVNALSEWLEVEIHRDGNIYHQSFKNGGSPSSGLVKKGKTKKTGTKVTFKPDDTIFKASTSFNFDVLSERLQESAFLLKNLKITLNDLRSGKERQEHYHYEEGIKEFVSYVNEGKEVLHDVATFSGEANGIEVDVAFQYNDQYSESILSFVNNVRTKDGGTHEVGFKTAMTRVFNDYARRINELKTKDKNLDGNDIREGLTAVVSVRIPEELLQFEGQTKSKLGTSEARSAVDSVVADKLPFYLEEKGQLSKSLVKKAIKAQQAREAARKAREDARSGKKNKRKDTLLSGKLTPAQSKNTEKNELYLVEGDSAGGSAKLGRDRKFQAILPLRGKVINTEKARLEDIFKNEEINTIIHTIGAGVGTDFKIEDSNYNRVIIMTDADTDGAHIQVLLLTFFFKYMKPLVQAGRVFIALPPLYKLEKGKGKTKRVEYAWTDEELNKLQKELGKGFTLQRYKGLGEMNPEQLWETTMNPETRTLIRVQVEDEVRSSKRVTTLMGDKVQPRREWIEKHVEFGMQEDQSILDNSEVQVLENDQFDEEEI

SMILES | IC50 [1] [µM] | SI SW480 [1] | IC50 [2] [µM] | SI SW620 [2] | IC50 ([3]; Homo sapiens, PC-3, 72 h) [µM] | SI PC3 [3] | IC50 [4] [µM] | MIC [5] [µg/mL] | MIC [6] [µg/mL] | MIC [7] [µg/mL] | MIC [8] [µg/mL] | MIC [9] [µg/mL] | MIC [10] [µg/mL] | MIC [12] [µg/mL] | MIC [13] [µg/mL] | MIC [14] [µg/mL] | MIC [15] [µg/mL] | MIC [16] [µg/mL] | MIC [17] [µg/mL] | MIC [18] [µg/mL] | also measured
COc1c(N2CC3CCCN(C(C)=O)C3C2)c(F)cc2c(=O)c(C(=O)O)cn(C3CC3)c12 (stereo not shown) [Compound 14m, 7-(1-Acetyl-octahydro-pyrrolo[3,4-b]pyridin-6-yl)-1-cyclopropyl-6-fluoro-8-methoxy-4-oxo-1,4-dihydro-quinoline-3-carboxylic acid] | 14.3 ± 3.2 | 6.0 | 18.4 ± 3.2 | 4.7 | 12.5 ± 1.6 | 6.9 | 86.5 ± 2.1 | 0.25 (≈ 0.564 µM) | 0.25 (≈ 0.564 µM) | 0.25 (≈ 0.564 µM) | 0.5 (≈ 1.13 µM) | 0.5 (≈ 1.13 µM) | 0.5 (≈ 1.13 µM) | > 512 | 32 (≈ 72.2 µM) | 0.5 (≈ 1.13 µM) | 0.5 (≈ 1.13 µM) | 0.5 (≈ 1.13 µM) | 32 (≈ 72.2 µM) | 0.5 (≈ 1.13 µM) | MIC E. coli ATCC 25922 ([11]; 18 h of treatment): 2 to 16 µg/mL; MIC ([11]; ATCC25922, 18 h of treatment): 8 µg/mL (≈ 18 µM); MIC [19]: 0.5 µg/mL (≈ 1.13 µM); MIC ([20]; 2 weeks of treatment): 64 µg/mL (≈ 144 µM); MIC ([21]; 2 weeks of treatment): 64 µg/mL (≈ 144 µM); IC50 [22]: 135 µM; MIC [23]: 0.25 to 1 µg/mL (≈ 0.564 to 2.25 µM); MIC [24]: 0.5 µg/mL (≈ 1.13 µM); MIC ([25]; summary over strains): 64 µg/mL (≈ 144 µM); IC50 [26]: 133 µM
C/C=C/C(=O)N1CCCC2CN(c3c(F)cc4c(=O)c(C(=O)O)cn(C5CC5)c4c3OC)CC21 (stereo not shown) [Compound 1m, 7-{1-(E)-But-2-enoyl-octahydro-pyrrolo[3,4-b]pyridin-6-yl}-1-cyclopropyl-6-fluoro-8-methoxy-4-oxo-1,4-dihydro-quinoline-3-carboxylic acid] | 31.6 ± 4.7 | 2.0 | 24.8 ± 3.2 | 2.6 | 23.8 ± 3.4 | 2.7 | 64.1 ± 2.3 | 0.5 (≈ 1.06 µM) | 0.5 (≈ 1.06 µM) | 0.5 (≈ 1.06 µM) | 0.5 (≈ 1.06 µM) | 1 (≈ 2.13 µM) | 0.5 (≈ 1.06 µM) | > 512 | 32 (≈ 68.2 µM) | 0.5 (≈ 1.06 µM) | 1 (≈ 2.13 µM) | 1 (≈ 2.13 µM) | 64 (≈ 136 µM) | 1 (≈ 2.13 µM) | MIC E. coli ATCC 25922 ([11]; 18 h of treatment): 2 to 16 µg/mL; MIC ([11]; ATCC25922, 18 h of treatment): 16 µg/mL (≈ 34.1 µM); MIC [19]: 1 µg/mL (≈ 2.13 µM); MIC [20]: 64 µg/mL (≈ 136 µM); MIC [21]: 64 µg/mL (≈ 136 µM); IC50 [22]: 130 µM; MIC [23]: 0.5 to 2 µg/mL (≈ 1.06 to 4.26 µM); MIC ([24]; 18 h): 0.5 to 1 µg/mL (≈ 1.06 to 2.13 µM); MIC [25]: 64 µg/mL (≈ 136 µM); IC50 [26]: > 136 µM
CCCCCCCC(=O)N1CCCC2CN(c3c(F)cc4c(=O)c(C(=O)O)cn(C5CC5)c4c3OC)CC21 (stereo not shown) [Compound 15m, 1-Cyclopropyl-6-fluoro-8-methoxy-7-(1-octanoyl-octahydro-pyrrolo[3,4-b]pyridin-6-yl)-4-oxo-1,4-dihydro-quinoline-3-carboxylic acid] | 3.2 ± 0.8 | 27.3 | 4.7 ± 1.5 | 18.6 | < 5 | 28.1 | 87.2 ± 3.6 | 4 (≈ 7.58 µM) | 4 (≈ 7.58 µM) | 4 (≈ 7.58 µM) | 4 (≈ 7.58 µM) | 4 (≈ 7.58 µM) | 8 (≈ 15.2 µM) | 512 (≈ 970 µM) | 8 (≈ 15.2 µM) | 8 (≈ 15.2 µM) | 8 (≈ 15.2 µM) | 8 (≈ 15.2 µM) | 8 (≈ 15.2 µM) | 4 (≈ 7.58 µM) | IC50 [3]: 3.1 ± 0.9 µM; MIC ([11]; ATCC25922, 18 h): 128 µg/mL (≈ 243 µM); MIC [19]: 8 µg/mL (≈ 15.2 µM); MIC ([20]; 2 weeks of treatment): 256 µg/mL (≈ 485 µM); MIC [21]: 128 µg/mL (≈ 243 µM); IC50 [27]: < 5 µM; MIC [23]: 4 to 8 µg/mL (≈ 7.58 to 15.2 µM); MIC [28]: 8 µg/mL (≈ 15.2 µM); MIC [25]: ≥ 128 µg/mL
CCC=CCC=CCC=CCC=CCC=CCC=CCCC(=O)N1CCN(c2cc3c(cc2F)c(=O)c(C(=O)O)cn3C2CC2)CC1 [Compound 8] |  |  |  |  |  |  |  |  |  |  |  |  |  |  |  |  |  |  |  |  | IC50 ([22]; read-out: IC50 for Topo IV, inhibition of kDNA decatenation, 30 min at 37 °C): > 99.7 µM; IC50 [29]: > 99.7 µM
